Laboratory results: PubChem BioAssay AID652101 (NMMLSC, 2013)
The source made the active and inactive calls.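 How the source made its calls: active means at least 15% inhibition at the top concentration together with an EC50 under 10 microM; inactive means the rest.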

Assays:
[1] = tested on: TALL-104 lytic granule exocytosis, LAMP-1 flow cytometry; experiment: potency against LAMP-1 externalization in TALL-104 – TALL-104 cells, flow cytometry, CherryPick01, dose response (AID 652101); conditions: stimulated with 1 µM thapsigargin, 50 nM PMA;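 on inhibition: 0% = stimulated DMSO control and 100% = unstimulated control wells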
[2] = as above; conditions: TALL-104 lytic granule exocytosis, LAMP-1 flow cytometry, at 15.1 µM (top of the series)
[3] = stimulated with 1 µM thapsigargin, 50 nM PMA

Structure (SMILES)	EC50 [1]	inhibition [2, 3]	further results
COc1cccc(N2CCN(c3ncnc4c3[nH]c3ccc(F)cc34)CC2C)c1 (stereo unspecified)	1.33 µM		
CC1=NOC(=O)/C1=C/c1ccc(-c2ccc(Cl)cc2)o1	1.68 µM		
O=C(Cn1sc2ccccc2c1=O)Nc1ccc(F)cc1	5.2 µM		
O=C1C=CC(=O)N1N(c1ccccc1)c1ccccc1	5.02 µM		
Fc1ccc(/C=C\c2nccc3c2[nH]c2ccccc23)cc1	1.66 µM		
CCCCC[C@@H](C)N1C[C@@H](COCc2ccccc2)Oc2cc(N3CC[C@H](N(C)C)C3)ccc2S1(=O)=O	9.73 µM		
COc1ccc(-n2sc3ccccc3c2=O)cc1	9 µM		
Cc1ccc(Nc2nc(NCc3ccco3)c3ccccc3n2)cc1	4.7 µM		
CCOc1ccc2nc(C)cc(Nc3cccc([N+](=O)[O-])c3)c2c1	6.14 µM		
COc1ccccc1CNc1nc(NCc2ccc3occc3c2)c2sccc2n1	4.23 µM		
CCOc1ccc2[nH]c3c(N4CCc5ccccc5C4)ncnc3c2c1	4.91 µM		
CCOC(=O)c1cc(-c2csc(Nc3c(C)cc(C)cc3C)n2)on1	3.44 µM		
Cc1ccc(-n2nnc3c(=O)oc4ccccc4c32)cc1	2.46 µM		
CCc1ccc(/C=C2/Sc3ccccc3N(CC(=O)NCCCN3CCOCC3)C2=O)cc1	5.17 µM		
O=C1Nc2ccc(Br)cc2/C1=C/C(=O)c1ccccc1	3.13 µM		
CCCCCCSc1cccc(-c2nc3ccccn3c2NCc2ccccc2)c1	7.71 µM		
O=C(Nc1ccc(F)cc1)c1nc(S(=O)(=O)Cc2ccccc2)ncc1Cl	0.344 µM		
O=c1c2ccccc2sn1-c1ccccc1F	4.78 µM		
CCCS(=O)(=O)Nc1ccc(Nc2c3ccccc3nc3ccccc23)c(OC)c1	3.38 µM		
c1ccc(CNc2nc(NCC3CC3)nc3cc(-c4ccccc4)sc23)cc1	2.22 µM		
CC1COCC(C)N1C1=C(Cl)C(=O)c2ccccc2C1=O (stereo unspecified)	1.61 µM		
Cc1ccc(S(=O)(=O)n2ccc3c(OCCOCCNCc4ccc(F)cc4)cccc32)cc1	4.41 µM		
CN1CCN(Cc2nc3ccccc3c(=O)n2Cc2nc(-c3ccc([N+](=O)[O-])cc3)cs2)CC1	6.16 µM		
CCOC(=O)c1c(NC(=O)COc2ccccc2OCC)sc2c1CC(C)(C)NC2(C)C	1.2 µM		

Structure (SMILES)	EC50 [1]	inhibition [2, 3]	further results
O=C(OCc1ccccc1)N(CCCCN(CCCNCc1ccccc1)C(=O)OCc1ccccc1)CCCNCc1ccccc1	1.24 µM		
N#Cc1c(Nc2ccccc2Cl)s[nH]c1=O	3.82 µM		
O=S(=O)(Nc1cc(Sc2ncn[nH]2)c(O)c2ccccc12)c1ccccc1	2.91 µM		
O=C(Cn1sc2ccccc2c1=O)NC12CC3CC(CC(C3)C1)C2	5.13 µM		
Cc1cc(C)c2nc(C)cc(N/N=C/c3ccc(O)cc3)c2c1	4.47 µM		
CN1Cc2c(N3CCOCC3)nc3sc(C(=O)c4ccc(Br)cc4)c(N)c3c2CC1(C)C	3.23 µM		
O=S(=O)(c1ccccc1)c1nnn2c1nc(NC1CCN(Cc3ccccc3)CC1)c1cc(Cl)ccc12	4.22 µM		
O=C1CC(Sc2nnnn2-c2ccccc2)C(=O)N1c1cccc(Cl)c1 (stereo unspecified)	0.289 µM		
COc1cccc(-c2cnc3c(NC(C)=O)cc(-c4ccccc4OC)cn23)c1	5.23 µM		
O=C(CN1C(=O)/C(=C\c2cccc(Br)c2)Oc2ccccc21)NCCCN1CCOCC1	4.61 µM		
CCCCn1c(=N)n(CC(=O)c2ccc(Br)s2)c2ccccc21	3.99 µM		
COc1cccc(-c2cnc3c(NC(C)=O)cc(-c4ccsc4)cn23)c1	4.98 µM		
COc1ccccc1CNc1nc(NCc2ccc(C(C)C)cc2)c2sccc2n1	5.34 µM		
COc1ccc(N2C(=O)CC(Sc3nnc(-c4ccccc4)o3)C2=O)cc1 (stereo unspecified)	0.897 µM		
CCCCC[C@@H](C)N1C[C@@H](COCc2ccccc2)Oc2cc(N3CC[C@@H](N(C)C)C3)ccc2S1(=O)=O	4.57 µM		
Cc1ccc2nc(-c3ccc(NC(=S)NC4CC(C)(C)NC(C)(C)C4)cc3)sc2c1		5.48% (inactive)	
CCOC(=O)c1cnc2ccc(OCC)cc2c1N(C)Cc1ccccc1		69.7% (inactive)	
CCOc1ccccc1CNC(=O)C1CCN(c2nnc(C)c3c(C)n(-c4ccc(C)cc4)nc23)CC1		59.4% (inactive)	
CCc1ccc(CNC(=O)C2CCCN(c3nnc(C)c4c(C)n(-c5ccccc5)nc34)C2)cc1 (stereo unspecified)		97.2% (inactive)	
CCCCN(CCCC)c1nc(-c2ccncc2)nc2ccccc12		85.6% (inactive)	
Cn1c(=O)c(NC2CCCCC2)c2c3c(cccc31)C(=O)c1ccccc1-2		-4.68% (inactive)	
Cc1cccc(C)c1-n1nnnc1C(CCc1ccccc1)N1CCC(n2c(=O)[nH]c3ccccc32)CC1 (stereo unspecified)			inhibition [2]: 94.8% (inactive)
Cc1ccc2c3c(cccc13)-c1ccccc1C2=O		4.2% (inactive)	
COc1ccc(-c2cc(NC=O)c3ncc(-c4cccc(OC)c4)n3c2)cc1		101% (inactive)	

Structure (SMILES)	EC50 [1]	inhibition [2, 3]	further results
Cc1cncn1CCc1nc2c3ccccc3nc(SCC(=O)Nc3cccc(Cl)c3)n2n1		104% (inactive)	
OCCN1CCN(CC(O)COc2ccc(C34CC5CC(CC(C5)C3)C4)cc2)CC1 (stereo unspecified)		85.8% (inactive)	
CCN(CC)CCCNc1ccc(-c2nnc(-c3ccc(OCC(C)C)cc3)o2)cn1	2.35 µM		
c1ccc(COc2ccc(-c3cc4nc(NCCCn5ccnc5)ccn4n3)cc2)cc1		106% (inactive)	
COC(=O)c1c(NC(=O)c2nc3ccccc3s2)sc2c1CC(C)(C)NC2(C)C	6.27 µM		
COC(=O)c1ccc(CCc2cc(O)c(Br)cc2O)cc1		108% (inactive)	
Brc1ccccc1C1Nc2cccc3cccc(c23)N1		-2.38% (inactive)	
CCOC(=O)c1c(C)oc2c1c(C(c1cccnc1)N1CCOCC1)c(O)c1ccccc12 (stereo unspecified)		95% (inactive)	
O=C(COC(=O)[C@H](Cc1c[nH]c2ccccc12)NC(=O)c1ccc(Cl)cc1)Nc1ccc2c(c1)OCO2		108% (inactive)	
Cc1c(C(=O)OCC(=O)Nc2cccc(S(N)(=O)=O)c2)oc2c1ccc1ccccc12		104% (inactive)	
CCOc1ccc(Cl)cc1-c1cc(C(=O)NCc2cccs2)[nH]n1		79.8% (inactive)	
O=c1c2cc(F)ccc2sn1-c1ccccc1Cl		95.2% (inactive)	
COc1cc(-c2coc3c(C(=O)NCc4ccc(OC)c(OC)c4)cccc23)ccc1O		104% (inactive)	
Cc1cc(F)ccc1S(=O)(=O)Nc1ccccc1C(=O)Nc1ccccc1-c1nc2ccccc2[nH]1		106% (inactive)	
O=C(CCN1CCc2ccccc2CC1)c1ccc2c(c1)OCCO2		73.6% (inactive)	
Cn1c(=O)c(N)c2c3c(c(Br)ccc31)C(=O)c1ccccc1-2		1.57% (inactive)	
CC1=C(C)CS(=O)N(S(=O)(=O)c2ccc(Cl)cc2)C1 (stereo unspecified)	2.88 µM		
CCOc1cccc(CNCCc2c(C)[nH]c3ccc(OC(F)(F)F)cc23)c1O			inhibition [2]: 82.3% (inactive)
O=c1c2ccccc2sn1-c1ccccc1	2.36 µM		
CCOCCCNC(=S)N1CCCN(c2nc3c(C)c(C)ccc3cc2C#N)CC1		83.8% (inactive)	
O=CNc1cc(-c2ccsc2)cn2c(-c3ccccc3)cnc12		105% (inactive)	
Cc1cc(N2CCN(c3nc(-c4ccc([N+](=O)[O-])cc4)cs3)CC2)c2ccccc2n1	1.62 µM		
COc1cccc(NC(=O)Nc2nc(-c3ccc(OC)c(OC)c3)cs2)c1	4.83 µM		
